IC50 data for two molecules are collected here from ChEMBL document CHEMBL1157287, “Steroidal saponins from the rhizomes of Polygonatum sibiricum” (J Nat Prod, 2006).

As a reminder, the IC50 is the concentration that gives 50% inhibition.

Structures are written as SMILES.

The assay concerns MCF7. In words: Cytotoxicity against human MCF7 cells by MTT assay. In kind it is functional, cell-based. (Tetrazolium dyes change colour on reduction, which living cells bring about.)

`CC(=O)O[C@@H]1C[C@H](O[C@@H]2O[C@H](C)[C@H](O[C@@H]3O[C@H](CO)[C@@H](O)[C@H](O)[C@H]3O[C@@H]3O[C@H](CO)[C@@H](O)[C@H](O)[C@H]3O)[C@H](O)[C@H]2O)CC2=CC[C@H]3[C@@H]4C[C@@H]5O[C@@]6(OC[C@@H](C)[C@@H](O)[C@@H]6O)[C@@H](C)[C@@H]5[C@@]4(C)CC[C@@H]3[C@]21C` came in with an IC50 greater than 100 µM.
`CC1CC[C@@]2(OC1)O[C@H]1C[C@H]3[C@@H]4CC=C5C[C@@H](O[C@@H]6O[C@H](CO)[C@H](O[C@@H]7O[C@H](CO)[C@@H](O)[C@H](O)[C@H]7O[C@@H]7O[C@H](CO)[C@@H](O)[C@H](O)[C@H]7O)[C@H](O)[C@H]6O)CC[C@]5(C)[C@H]4CC[C@]3(C)[C@H]1[C@@H]2C` (mixture of isomers) yielded an IC50 of 24.3 µM.
